± gives the expanded uncertainty stated by the source.
Conditions: 283.16 K, Liquid, Vibrating tube method

CCCC(=O)OCC(COC(=O)CCC)(COC(=O)CCC)COC(=O)CCC [pentaerythritol tetrabutyrate]
Conditions | mass density [kg/m3]
5754.4 kPa | 1062.4 ± 1.3
5761.1 kPa | 1062.4 ± 1.3
5766.6 kPa | 1062.4 ± 1.3
5773.7 kPa | 1062.5 ± 1.3
5779.1 kPa | 1062.4 ± 1.3
5803.1 kPa | 1062.5 ± 1.3
5808.7 kPa | 1062.4 ± 1.3
5814.4 kPa | 1062.5 ± 1.3
5821.5 kPa | 1062.5 ± 1.3
5827.2 kPa | 1062.4 ± 1.3
5833 kPa | 1062.4 ± 1.3
5839.6 kPa | 1062.5 ± 1.3
5845.5 kPa | 1062.5 ± 1.3
5851.5 kPa | 1062.4 ± 1.3
5857.2 kPa | 1062.5 ± 1.3
5864.2 kPa | 1062.5 ± 1.3
5869.9 kPa | 1062.5 ± 1.3
5876.8 kPa | 1062.5 ± 1.3
5882.3 kPa | 1062.4 ± 1.3
5888.4 kPa | 1062.6 ± 1.3
5894.6 kPa | 1062.4 ± 1.3
5901.3 kPa | 1062.5 ± 1.3
5907.2 kPa | 1062.5 ± 1.3
5913.3 kPa | 1062.5 ± 1.3
5919.5 kPa | 1062.5 ± 1.3
5926.4 kPa | 1062.5 ± 1.3
5932.3 kPa | 1062.6 ± 1.3
5938.5 kPa | 1062.6 ± 1.3
5944.6 kPa | 1062.5 ± 1.3
5951.6 kPa | 1062.5 ± 1.3
5957.7 kPa | 1062.5 ± 1.3
5963.8 kPa | 1062.5 ± 1.3
5971 kPa | 1062.5 ± 1.3
5977.1 kPa | 1062.7 ± 1.3
5983.3 kPa | 1062.6 ± 1.3
5989.3 kPa | 1062.6 ± 1.3
5996.6 kPa | 1062.6 ± 1.3
6002.8 kPa | 1062.6 ± 1.3
6009.4 kPa | 1062.5 ± 1.3
6016.2 kPa | 1062.6 ± 1.3
6022.5 kPa | 1062.7 ± 1.3
6029.9 kPa | 1062.5 ± 1.3
6036 kPa | 1062.6 ± 1.3
6042.3 kPa | 1062.6 ± 1.3
6048.4 kPa | 1062.6 ± 1.3
6056 kPa | 1062.7 ± 1.3
6062 kPa | 1062.6 ± 1.3
6068.3 kPa | 1062.6 ± 1.3
6075.9 kPa | 1062.6 ± 1.3
6082.1 kPa | 1062.6 ± 1.3
6088.5 kPa | 1062.6 ± 1.3
6095.2 kPa | 1062.7 ± 1.3
6100.5 kPa | 1062.6 ± 1.3
6106.9 kPa | 1062.6 ± 1.3
6114.5 kPa | 1062.7 ± 1.3
6120.9 kPa | 1062.6 ± 1.3
6127.1 kPa | 1062.6 ± 1.3
6134.7 kPa | 1062.6 ± 1.3
6140.7 kPa | 1062.6 ± 1.3
6147.1 kPa | 1062.7 ± 1.3
6153.9 kPa | 1062.7 ± 1.3
6161.5 kPa | 1062.6 ± 1.3
6167.9 kPa | 1062.6 ± 1.3
6174.6 kPa | 1062.7 ± 1.3
6182.6 kPa | 1062.6 ± 1.3
6188.8 kPa | 1062.7 ± 1.3
6195.4 kPa | 1062.8 ± 1.3
6202.1 kPa | 1062.6 ± 1.3
6210.1 kPa | 1062.8 ± 1.3
6216.6 kPa | 1062.6 ± 1.3
6223.4 kPa | 1062.6 ± 1.3
6229.9 kPa | 1062.6 ± 1.3
6237.5 kPa | 1062.7 ± 1.3

From the NIST ThermoML archive (doi:10.1021/je060271a)
